Data as given in US20200148682A1, “AKT ISOZYME-SPECIFIC COVALENT INHIBITORS DERIVED FROM REDOX-SIGNALING LIPIDS” (Cornell University, priority 2017, published 2020).
“Also recorded” adds a separate entry of the source. Each block holds one compound with its values, some of them ahead of it.

Tests used:
Assay type in all cases: cell-based
MDA-MB-468 cells = test: Cell cycle analysis using flow cytometry
Protocol: MDA-MB-468 cells in a 6-well plate at 10% confluence were treated with HNE alkyne or the indicated drug at PI60 or PI80 concentration for 72 hours at 37° C. Negative control contained the equivalent volume of DMSO. Cells were grown and analyzed in separate batches of 1-2 replicates per condition that were run 2-3 times each. Each time the data points were normalized to the control set for each batch. At the indicated time post compound treatment, the culture medium was aspirated and the adherent cells were detached from the plate using trypsin, quenched with complete media, centrifuged (700 g), washed once with PBS, centrifuged (700 g), resuspended in PBS, then fixed with 70% ethanol for 24 hours. The cell suspensions were spun down at 1,000 g and washed with 500 μl of PBS twice. Each cell pellet was treated with 500 μL staining solution containing 50 μl of Ribonuclease A (≥70 Kunitz units/mg proteins, R6513, Sigma-Aldrich) and 50 μl of a propidium iodide (1 mg/ml, Sigma-Aldrich) solution in PBS with 1% BSA. The resulting solution was incubated with agitation at room temperature for 30 min in the dark.
The stained cells were assayed on a BD LSR II flow cytometer. FlowJo® was used to deconvolute the signals. Cells were grouped first by forward and side scatter (area), then that group was regrouped using forward (width) versus forward (area) scatter to give single cells. Cells were than analyzed using cellular DNA content to quantitate the percentage of cells in the respective phases (G1, S, G2/M and sub-G0) of the cell cycle.

BT-549 = test: Cell viability assay (AlamarBlue); conditions: BT-549, 72 hours
Protocol: (§1) FIGS. 22A and 22D are graphs showing results of cytotoxicity assays for MDA-MB-468 (FIG. 22A) and BT-549 (FIG. 22D). […] Stated cell lines were plated in 96-well plates (3000 cells per well) in the presence of the stated concentration of inhibitor. After 72 hours, the number of viable cells was analyzed by AlamarBlue®. Proliferation inhibition 50% (PI50) values were calculated by fitting data to “PI50 equation” (EQN 4) (FIG. 22C). MDA cells were transfected with the stated siRNA using lipofectamine 3000 for 12 hours. […] After 72 hours, the number of viable cells was calculated using AlamarBlue®. FIG. 22F is a schematic showing AlamarBlue® viability assay. […] MDA-MB-468 cells were treated with the stated drugs for 72 hours at the PI60 and PI80. After this time, cells were harvested, fixed/permeabilized with ethanol and DNA content was stained using propidium iodide (visualized in the 488-3 channel). RNA was removed simultaneously using RNAse. After 30 min at room temperature, cells were analyzed by flow cytometry.
(§2) Indicated cells were plated in a 96-well plate containing the DMEM complete medium (see Example 11 for complete medium formulation, 100 μL per well) with a density of 3,000-5,000 cells per well for 12 hours followed by the addition of varying concentrations of inhibitors in rinse medium (100 μL). The cells were allowed to grow for 72 hours and 100 μL of the culture medium was removed from each well. This was followed by the addition of 10 μL AlamarBlue® reagent to each well. The fluorescence emission signals at 590 nm were read by Cytation 3 cell imaging multi-mode reader (BioTeK) using an excitation wavelength of 560 nm. Curve fitting and data analysis were performed using Prism software.

MDA-MB-468 = test: Cell viability assay (AlamarBlue); conditions: MDA-MB-468, 72 hours
Protocol: as §1, §2

Halo-Akt3 = target: T1, Halo-Akt3 (Homo sapiens, UniProt Q9Y243); test: In-gel fluorescence assay (Cy5-azide click) of covalent labeling in transfected HEK293T cells; conditions: 5 μM, 48 hours
T1 construct: expressed in transfected cells; host or cells: HEK293T
Protocol: HEK293T cells were transfected with Halo-Akt3 for 20 hours, then treated with the stated compound (5 μM, 48 hours). After this time, cells were lysed and the labeling was assayed by click chemistry. […] FIGS. 19A, 19C top gels are images showing in gel fluorescence, Cy5 channel. M is a molecular weight ladder. FIG. 19A, 19C lower panels are images of western blots (probing for Halo and actin, respectively) transferred from the same gel as the top image. […] FIGS. 19E-19F are graphs showing quantitation of in-gel Cy5 signal intensity, divided by the western blot signal for Halo.
Cell transfection with the designated plasmid encoding a given HaloTag-Akt fusion gene was carried out following the general procedure described in Example 12. After 20-24 hours, the transfection media were aspirated and replaced with fresh 2 mL rinse MEM medium supplemented with 3% FBS containing the indicated concentration of inhibitor or the equivalent final volume of DMSO and the plates were incubated for the indicated period of time. Cells were then harvested and lysed following the general procedure described in Examples 11 and 13. A portion of the lysate was made up to 25 μL final volume containing, in final concentrations, 5% t-BuOH, [2 mM TCEP, 1% SDS, 1 mM CuSO4, 0.1 mM Cu(TBTA), 10 μM Cy5 azide made up as a 10× stock in water] and 1.0 mg/mL lysate protein. The samples were incubated at 37° C. for 30 min and subsequently quenched with 8 μL of 4×Laemmeli dye containing 6% f ME. After an additional 5-min incubation at 37° C., samples were resolved on a 10% SDS-PAGE gel following the general procedure described in Example 14. After electrophoresis, the gel was rinsed three times with ddH2O and imaged on a Bio-Rad Chemi-doc-MP Imager. Where applicable, the gel was transferred to a PVDF membrane for western blot analysis following the general procedure described in Example 15.

[1] = test system: Akt1, Akt2, Akt3 isoforms; test: Akt isoform selectivity of covalent inhibition (in-gel fluorescence, transfected HEK293T cells)
Excerpt: Overexpressed Akt proteins were labeled with Cy5-small-molecule-fluorophore-conjugated azide (Cy5-azide) using standard click chemistry. FIG. 16A top gel is an image showing Cy5 channel (used to evaluate the extent of covalent binding on each Akt protein). The lysate from non-transfected HEK 293T cells was also used for comparison. M, molecular weight ladder. […] FIG. 16B top gel is an image showing Cy5 channel. M is a molecular weight ladder. FIG. 16B bottom is an image showing western blots probing Halo and actin, respectively. […] Error bars designate s.d. […] Normalized fluorescent signal (NFS) was calculated from the following equation: NFS=[(Cy5(X μM drug)−Cy5(No transfection))/Halo(X μM drug)]÷[(Cy5(no drug)−Cy5(No transfection))/Halo(no drug)]. The relative fluorescent signal (RFS) is calculated from the following equation: RFS=(Cy5(X μM drug)/Halo(X μM drug)) (Cy5(no drug)/Halo(no drug))
Cell transfection with the designated plasmid encoding a given HaloTag-Akt fusion gene was carried out following the general procedure described in Example 12. After 20-24 hours, the transfection media were aspirated and replaced with fresh 2 mL rinse MEM medium supplemented with 3% FBS containing the indicated concentration of inhibitor or the equivalent final volume of DMSO and the plates were incubated for the indicated period of time. […]

T1 sequence (Q9Y243 whole entry): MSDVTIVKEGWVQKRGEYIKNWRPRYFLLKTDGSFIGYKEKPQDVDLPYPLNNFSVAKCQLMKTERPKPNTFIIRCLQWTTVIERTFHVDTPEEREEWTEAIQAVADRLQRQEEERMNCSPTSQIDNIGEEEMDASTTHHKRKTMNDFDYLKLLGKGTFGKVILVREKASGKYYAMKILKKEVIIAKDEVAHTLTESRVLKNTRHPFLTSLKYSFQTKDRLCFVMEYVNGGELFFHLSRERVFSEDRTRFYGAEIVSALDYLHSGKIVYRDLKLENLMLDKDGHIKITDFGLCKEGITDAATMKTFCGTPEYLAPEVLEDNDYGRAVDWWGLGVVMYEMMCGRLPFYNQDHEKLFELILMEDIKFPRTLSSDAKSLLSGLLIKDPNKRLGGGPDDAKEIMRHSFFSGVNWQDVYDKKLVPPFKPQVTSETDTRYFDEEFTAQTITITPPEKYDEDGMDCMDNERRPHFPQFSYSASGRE

Structure (SMILES): C#CCCCC(O)C=CC=O (stereo not shown) [HNE alkyne]
G1/G0 (percentage of cells in phase) (MDA-MB-468 cells; drug at PI60, 72 hours): 40.0
G2/M (percentage of cells in phase) (MDA-MB-468 cells; drug at PI60, 72 hours): 30.8
S (percentage of cells in phase) (MDA-MB-468 cells; drug at PI60, 72 hours): 26.3
subG0 (percentage of cells in phase) (MDA-MB-468 cells; drug at PI60, 72 hours): 3.7
G1/G0 (percentage of cells in phase) (MDA-MB-468 cells; drug at PI80, 72 hours): 28.5
G2/M (percentage of cells in phase) (MDA-MB-468 cells; drug at PI80, 72 hours): 22
S (percentage of cells in phase) (MDA-MB-468 cells; drug at PI80, 72 hours): 31.3
subG0 (percentage of cells in phase) (MDA-MB-468 cells; drug at PI80, 72 hours): 18.2

Structure (SMILES): CCn1c(-c2nonc2N)nc2c(C#CC(C)(C)O)ncc(OC[C@H]3CCCNC3)c21 [GSK-69063]
G1/G0 (percentage of cells in phase) (MDA-MB-468 cells; drug at PI80, 72 hours): 47.7
G2/M (percentage of cells in phase) (MDA-MB-468 cells; drug at PI80, 72 hours): 30.0
S (percentage of cells in phase) (MDA-MB-468 cells; drug at PI80, 72 hours): 14.3
subG0 (percentage of cells in phase) (MDA-MB-468 cells; drug at PI80, 72 hours): 0.92

Structure (SMILES): CCCCCC(O)/C=C/C=O (stereo not shown) [HNE, hydroxynonenal]
effect on cell cycle (MDA-MB-468 cells; 72 hours): S-phase arrest; also recorded: loss of G1

covalent labeling of Halo-Akt3 (Halo-Akt3): able to elicit covalent labeling
Structure (SMILES): C#CCCCC/C=C/C(=O)NC1(c2ccc(-c3nc4ccn5c(=O)[nH]nc5c4cc3-c3ccccc3)cc2)CCC1 [MK-dHNE, (E)-8-(4-(1-(Non-2-en-8-ynamido)cyclobutyl)phenyl)-3-oxo-9-phenyl-2,3-dihydro-[1,2,4]triazolo[3,4-f][1,6]naphthyridin-7-ium Chloride]
toxicity / potency relative to MK-2206 (BT-549): less effective than MK-2206
toxicity / potency relative to MK-2206 (MDA-MB-468): less effective than MK-2206

covalent labeling of Halo-Akt3 (Halo-Akt3): no covalent labeling was observed
Structure (SMILES): C#CCCCC(O)CCC(=O)NC1(c2ccc(-c3nc4ccn5c(=O)[nH]nc5c4cc3-c3ccccc3)cc2)CCC1.Cl (stereo not shown) [MK-HNA, 8-(4-(1-(4-Hydroxynon-8-ynamido)cyclobutyl)phenyl)-3-oxo-9-phenyl-2,3-dihydro-[1,2,4]triazolo[3,4-f][1,6]naphthyridin-7-ium Chloride]

Structure (SMILES): CC(C)NC[C@@H](C(=O)N1CCN(c2ncnc3c2[C@H](C)C[C@H]3O)CC1)c1ccc(Cl)cc1 [GDC-0068]
G1/G0 (percentage of cells in phase) (MDA-MB-468 cells; drug at PI60, 72 hours): 52.6
G2/M (percentage of cells in phase) (MDA-MB-468 cells; drug at PI60, 72 hours): 28.3
S (percentage of cells in phase) (MDA-MB-468 cells; drug at PI60, 72 hours): 12.1
subG0 (percentage of cells in phase) (MDA-MB-468 cells; drug at PI60, 72 hours): 1.64

Structure (SMILES): C#CCCCCC(O)C(=C)C(=O)NC1(c2ccc(-c3nc4ccn5c(=O)[nH]nc5c4cc3-c3ccccc3)cc2)CCC1.Cl (stereo not shown) [MK-G, 8-(4-(1-(3-Hydroxy-2-methylenenon-8-ynamido)cyclobutyl)phenyl)-3-oxo-9-phenyl-2,3-dihydro-[1,2,4]triazolo[3,4-f][1,6]naphthyridin-7-ium Chloride]
Akt isozyme selectivity of inhibition [1]: no isozyme-selective inhibition
